Species on record: Rattus norvegicus
Assay: DrugMatrix - Regimen: Daily Repeat
Assay type: toxicity, organism-based, Sprague-Dawley
Set-up: regimen Daily Repeat, gender Male, age 6-8 weeks
Conditions: in vivo, po, route oral GAVAGE, […]; for ABSOLUTE BASOPHIL / ABSOLUTE EOSINOPHIL / ABSOLUTE LYMPHOCYTE / ABSOLUTE MONOCYTE / ABSOLUTE SEGMENTED NEUTROPHIL / BASOPHIL / EOSINOPHIL / ERYTHROCYTE COUNT / HEMATOCRIT / HEMOGLOBIN / LEUKOCYTE COUNT / LYMPHOCYTE / MEAN CORPUSCULAR HEMOGLOBIN / MEAN CORPUSCULAR HEMOGLOBIN CONCENTRATION / MEAN CORPUSCULAR VOLUME / MONOCYTE / NEUTROPHIL / NUCLEATED RED BLOOD CELLS / PLATELET COUNT: tissue Blood; for ALANINE AMINOTRANSFERASE / ALBUMIN / ALKALINE PHOSPHATASE / ASPARTATE AMINOTRANSFERASE / BLOOD UREA NITROGEN / CARBON DIOXIDE / CHLORIDE / CHOLESTEROL / CREATINE PHOSPHOKINASE / CREATININE / GLUCOSE / LACTATE DEHYDROGENASE / LIPASE / PHOSPHORUS / POTASSIUM / SODIUM / TOTAL BILIRUBIN / TOTAL PROTEIN / URIC ACID: tissue Plasma
[1] = 30 mg/kg, 120 h, dose level Low, time 5 day
[2] = 2500 mg/kg, 72 h, dose level High, time 3 day
[3] = 2500 mg/kg, 120 h, dose level High, time 5 day

COC1=CC(=O)C[C@@H](C)[C@]12Oc1c(Cl)c(OC)cc(OC)c1C2=O [GRISEOFULVIN]
ABSOLUTE BASOPHIL [1]: 0 CELLS/uL
ABSOLUTE EOSINOPHIL [1]: 0 CELLS/uL
ABSOLUTE LYMPHOCYTE [1]: 12913.33 CELLS/uL
ABSOLUTE MONOCYTE [1]: 48.67 CELLS/uL
ABSOLUTE SEGMENTED NEUTROPHIL [1]: 1938 CELLS/uL
BASOPHIL [1]: 0%
EOSINOPHIL [1]: 0%
ERYTHROCYTE COUNT [1]: 5.4 x10E6/uL
HEMATOCRIT [1]: 33.57%
HEMOGLOBIN [1]: 12.93 G/DL
LEUKOCYTE COUNT [1]: 14.9 x10E3/uL
LYMPHOCYTE [1]: 86.67%
MEAN CORPUSCULAR HEMOGLOBIN [1]: 23.93 pg
MEAN CORPUSCULAR HEMOGLOBIN CONCENTRATION [1]: 38.5 G/DL
MEAN CORPUSCULAR VOLUME [1]: 62.1 fL
MONOCYTE [1]: 0.33%
NEUTROPHIL [1]: 13%
NUCLEATED RED BLOOD CELLS [1]: 0 /100WBC
PLATELET COUNT [1]: 1179 x10E3/uL
ALANINE AMINOTRANSFERASE [1]: 63.67 u/L
ALBUMIN [1]: 3.87 G/DL
ALKALINE PHOSPHATASE [1]: 399.67 u/L
ASPARTATE AMINOTRANSFERASE [1]: 90.33 u/L
BLOOD UREA NITROGEN [1]: 15.33 mg/dL
CARBON DIOXIDE [1]: 28.33 mmol/L
CHLORIDE [1]: 101.67 MEQ/L
CHOLESTEROL [1]: 66.33 mg/dL
CREATINE PHOSPHOKINASE [1]: 384.67 u/L
CREATININE [1]: 0.2 mg/dL
GLUCOSE [1]: 154 mg/dL
LACTATE DEHYDROGENASE [1]: 329.33 u/L
LIPASE [1]: 10 u/L
PHOSPHORUS [1]: 11.63 mg/dL
POTASSIUM [1]: 6.32 MEQ/L
SODIUM [1]: 143 MEQ/L
TOTAL BILIRUBIN [1]: 0.2 mg/dL
TOTAL PROTEIN [1]: 5.5 G/DL
URIC ACID [1]: 1.43 mg/dL
ABSOLUTE BASOPHIL [2]: 0 CELLS/uL
ABSOLUTE EOSINOPHIL [2]: 109.33 CELLS/uL
ABSOLUTE LYMPHOCYTE [2]: 15660.67 CELLS/uL
ABSOLUTE MONOCYTE [2]: 63 CELLS/uL
ABSOLUTE SEGMENTED NEUTROPHIL [2]: 2167 CELLS/uL
BASOPHIL [2]: 0%
EOSINOPHIL [2]: 0.67%
ERYTHROCYTE COUNT [2]: 5.22 x10E6/uL
HEMATOCRIT [2]: 32.37%
HEMOGLOBIN [2]: 12.83 G/DL
LEUKOCYTE COUNT [2]: 18 x10E3/uL
LYMPHOCYTE [2]: 87%
MEAN CORPUSCULAR HEMOGLOBIN [2]: 24.6 pg
MEAN CORPUSCULAR HEMOGLOBIN CONCENTRATION [2]: 39.67 G/DL
MEAN CORPUSCULAR VOLUME [2]: 62.07 fL
MONOCYTE [2]: 0.33%
NEUTROPHIL [2]: 12%
NUCLEATED RED BLOOD CELLS [2]: 0 /100WBC
PLATELET COUNT [2]: 1162 x10E3/uL
ALANINE AMINOTRANSFERASE [2]: 57 u/L
ALBUMIN [2]: 3.87 G/DL
ALKALINE PHOSPHATASE [2]: 293.67 u/L
ASPARTATE AMINOTRANSFERASE [2]: 75.67 u/L
BLOOD UREA NITROGEN [2]: 14.33 mg/dL
CARBON DIOXIDE [2]: 33.67 mmol/L
CHLORIDE [2]: 98.33 MEQ/L
CHOLESTEROL [2]: 107.67 mg/dL
CREATINE PHOSPHOKINASE [2]: 199 u/L
CREATININE [2]: 0.17 mg/dL
GLUCOSE [2]: 144 mg/dL
LACTATE DEHYDROGENASE [2]: 120 u/L
LIPASE [2]: 11.67 u/L
PHOSPHORUS [2]: 12.17 mg/dL
POTASSIUM [2]: 6.74 MEQ/L
SODIUM [2]: 142.47 MEQ/L
TOTAL BILIRUBIN [2]: 0.2 mg/dL
TOTAL PROTEIN [2]: 5.83 G/DL
URIC ACID [2]: 1.47 mg/dL
ABSOLUTE BASOPHIL [3]: 0 CELLS/uL
ABSOLUTE EOSINOPHIL [3]: 34 CELLS/uL
ABSOLUTE LYMPHOCYTE [3]: 11701.67 CELLS/uL
ABSOLUTE MONOCYTE [3]: 201.67 CELLS/uL
ABSOLUTE SEGMENTED NEUTROPHIL [3]: 562.67 CELLS/uL
BASOPHIL [3]: 0%
EOSINOPHIL [3]: 0.33%
ERYTHROCYTE COUNT [3]: 5.46 x10E6/uL
HEMATOCRIT [3]: 34.03%
HEMOGLOBIN [3]: 13.2 G/DL
LEUKOCYTE COUNT [3]: 12.5 x10E3/uL
LYMPHOCYTE [3]: 93.67%
MEAN CORPUSCULAR HEMOGLOBIN [3]: 24.23 pg
MEAN CORPUSCULAR HEMOGLOBIN CONCENTRATION [3]: 38.8 G/DL
MEAN CORPUSCULAR VOLUME [3]: 62.4 fL
MONOCYTE [3]: 1.67%
NEUTROPHIL [3]: 4.33%
NUCLEATED RED BLOOD CELLS [3]: 0.33 /100WBC
PLATELET COUNT [3]: 1293.67 x10E3/uL
ALANINE AMINOTRANSFERASE [3]: 49.67 u/L
ALBUMIN [3]: 4.17 G/DL
ALKALINE PHOSPHATASE [3]: 316.33 u/L
ASPARTATE AMINOTRANSFERASE [3]: 89.33 u/L
BLOOD UREA NITROGEN [3]: 17.67 mg/dL
CARBON DIOXIDE [3]: 24 mmol/L
CHLORIDE [3]: 109 MEQ/L
CHOLESTEROL [3]: 95.67 mg/dL
CREATINE PHOSPHOKINASE [3]: 362.67 u/L
CREATININE [3]: 0.28 mg/dL
GLUCOSE [3]: 152.67 mg/dL
LACTATE DEHYDROGENASE [3]: 489 u/L
LIPASE [3]: 11.33 u/L
PHOSPHORUS [3]: 11.23 mg/dL
POTASSIUM [3]: 6.51 MEQ/L
SODIUM [3]: 150.77 MEQ/L
TOTAL BILIRUBIN [3]: 0.13 mg/dL
TOTAL PROTEIN [3]: 6.2 G/DL
URIC ACID [3]: 1.83 mg/dL

— ChEMBL document CHEMBL3885881, “DrugMatrix”
